For one test, the system named is UCP1 expression. As to the kind of experiment: UCP1 mRNA expression (qRT-PCR) in primary adipocytes from interscapular brown adipose tissue. The note with it: 0.1 μM secretin or 0.5 μM isoproterenol, 6 hours, normalized to TFIIB (FIG. 4B). The test is classed as cell-based, Mus musculus. How it is done: For culturing primary adipocytes male 129S1/SvImJ mice ([…] or UCP1-KO mice and wildtype littermates) at the age of 5-6 weeks were used for the dissection of inguinal and epidydimal white adipose tissue and interscapular brown adipose tissue depots. The tissue was carefully minced and treated with collagenase for 45 min at 37° C. The homogenate was filtered through a 250 μm nylon mesh and centrifuged at 500 g to collect the stromal vascular fraction (SVF). The SVF cell pellet was rinsed and seeded into XF96 V3-PS cell culture microplate (Seahorse Bioscience). After reaching confluency, induction medium containing 10% fetal bovine serum (FBS), 0.5 mM isobutylmethylxanthine, 125 nM indomethacin, 1 mM dexamethasone, 850 nM insulin and 1 nM T3 was added. […] Respiration was measured on day 7 of differentiation. […] RNA was eluted in 50 μl nuclease-free water and RNA concentration was determined spectrophotometrically (Infinite 200 PRO NanoQuant, Tecan, Männedorf/Switzerland). Reverse transcription into cDNA was performed with 500 ng RNA in a final volume of 10 μl (Quantitect Reverse Transcription Kit, Quiagen, Hilden/Germany). qRT-PCR was conducted on 384 well plates in a total volume of 12.5 μl comprising 6.25 μl SensiMix SYBR No-ROX (Bioline, London/UK), 250 nM forward and reverse primers, and 1 μl template cDNA (LightCycler 480 System, Roche Diagnostics, Rotkreuz/Switzerland). […]
(In general: In qPCR the cycle at which signal appears reflects the starting amount.)

The subject of another test is UCP1 knockout mice. In words: Indirect calorimetry, heat production after i.p. injection in UCP1 knockout mice. The format is in vivo, Mus musculus. The note with it: 0.5 mg/kg i.p., 27° C., 60 minutes, p=0.482 (FIG. 6B, 6C). How it is done:
Indirect calorimetric measurements in mice were performed using an open flow respirometry system (Phenomaster, TSE Systems, Bad Homburg/Germany). All animals were kept at room temperature or cold-acclimated at 4° C. for 4 days as indicated in the results section. For the gas exchange measurement (O2 consumption and CO2 production) mice were placed individually in metabolic cages (type I, 3 liter volume) without food and water and transferred to a climate cabinet (TPK 600, Feutron, Greiz/Germany). The air was continuously pulled through the cages at a flow rate of 33 l/h. For gas analysis a subsample was dried in a cooling trap and analyzed for gas exchange. Mice in the cabinet were preconditioned to 30° C. and the basal metabolic rate (BMR) in the post-absorptive state was measured between 8:00 a.m.-12:00 p.m. The O2 consumption and CO2 production of each mouse was analyzed every 5 min over a period of 1 min. […] After injection the O2 consumption and CO2 production rate of each mouse was recorded for 45-60 min with high-resolution recordings at 10 sec intervals. […] Respiratory exchange ratios (RER) and heat production (HP) were calculated from the following formula: (RER=CO2 production/O2 consumption) and (HP[mW]=(4.44+1.43*respiratory exchange ratio)*oxygen consumption [ml/h]).

The values below come from patent US20200179488A1, “Secretin Receptor Agonists to Treat Diseases or Disorders of Energy Homeostasis” (Technische Universität München, priority 2016, published 2020).

Turning to secretin, the “UCP1 mRNA expression in brown adipocytes versus PBS” value in the test with UCP1 expression was “significantly increased the expression of the UCP1 gene”. In addition, the “heat production and its AUC versus PBS” value with UCP1 knockout mice is “no difference”.
